Results as given in patent US10597388B2, “Pyridazinone herbicides” (FMC CORPORATION, priority 2014, dated 2020).

Key:
Format in all cases: in vivo
[1] = tested on: foxtail, giant (giant foxtail, Setaria faberii); assay: Test A greenhouse herbicide test, pre- and postemergence
Method in brief: (§1)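 Visual injury ratings, 0 (no effect) to 100 (complete control), versus untreated plants after roughly 10 d in a greenhouse. Compounds, formulated in a surfactant-containing non-phytotoxic solvent, were sprayed on loam–sand soil after sowing (pre) or on one- to two-leaf plants 2–10 cm tall (post).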

kochia (Kochia scoparia) = assay: as above
Method in brief: as §1

[2] = tested on: pigweed (Amaranthus retroflexus); assay: as above
Method in brief: as §1

[3] = tested on: ragweed (common ragweed, Ambrosia elatior); assay: as above
Method in brief: as §1

[4] = tested on: wheat (Triticum aestivum); assay: as above; details: Postemergence
Method in brief: as §1

[5] = tested on: blackgrass (Alopecurus myosuroides); assay: Test C greenhouse herbicide test, pre- and postemergence
Method in brief: (§2)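 Visual 0–100 injury score (100 = complete control) taken against untreated controls after 13–15 d in greenhouse. Test chemicals, formulated in solvent plus surfactant, applied preemergence to seeds in loam–sand soil or postemergence to 1- to 4-leaf plants (2–18 cm).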

corn (Zea mays) = assay: as above
Method in brief: as §2

[6] = tested on: morningglory (Ipomoea coccinea); assay: as above
Method in brief: as §2

[7] = tested on: pigweed (Amaranthus retroflexus); assay: as above
Method in brief: as §2

[8] = tested on: ryegrass, Italian (Italian ryegrass, Lolium multiflorum); assay: as above
Method in brief: as §2

[9] = tested on: velvetleaf (Abutilon theophrasti); assay: as above
Method in brief: as §2

[10] = Postemergence, 125 g ai/ha, 0 to 100 scale where 0 is no effect and 100 is complete control
[11] = Postemergence, 500 g ai/ha, visual rating after approx. 10 d, 0 to 100 scale (0 no effect, 100 complete control)
[12] = Preemergence, 125 g ai/ha, 0 to 100 scale where 0 is no effect and 100 is complete control
[13] = Preemergence, 500 g ai/ha, 0 to 100 scale where 0 is no effect and 100 is complete control
[14] = Postemergence, 31 g ai/ha, scale 0 to 100 (0 no effect, 100 complete control)
[15] = Postemergence, 125 g ai/ha, scale 0 to 100, 0 is no effect, 100 is complete control
[16] = Postemergence, 250 g ai/ha, scale 0 to 100, 0 no effect, 100 complete control, 13 to 15 d
[17] = Preemergence, 31 g ai/ha, scale 0 to 100, 0 is no effect, 100 is complete control
[18] = Preemergence, 62 g ai/ha, scale 0 to 100, 0 is no effect, 100 is complete control
[19] = Preemergence, 125 g ai/ha, scale 0 to 100, 0 is no effect, 100 is complete control
[20] = Preemergence, 250 g ai/ha, scale 0 to 100, 0 no effect, 100 complete control
[21] = postemergence, 62 g ai/ha, scale 0 to 100, 0 no effect, 100 complete control

Q: For `CCCC(=O)Oc1c(C)nn(C)c(=O)c1-c1c(C)sc2ccc(C)cc12` [Compound 105], which “Plant response rating, Foxtail, Giant” value [1, 10] is on record?
A: Its value is 70.

Q: What about the “Plant response rating, Foxtail, Giant” value [1, 11] of the same molecule?
A: The value was 90.

Q: What about the “Foxtail, Giant plant response rating” value [1, 12] of the same molecule?
A: Its value is 90.

Q: What about the “Plant response rating, Foxtail, Giant” value [1, 13] of the same molecule?
A: The value was 100.

Q: And the “Plant response rating, Kochia” value (kochia (Kochia scoparia); [10])?
A: The value was 90.

Q: What about the “Plant response rating, Kochia” value (kochia (Kochia scoparia); [11]) of the same molecule?
A: Its value is 90.

Q: And the “Kochia plant response rating” value (kochia (Kochia scoparia); [12])?
A: Its value is 100.

Q: And the “Plant response rating, Kochia” value (kochia (Kochia scoparia); [13])?
A: Its value is 100.

Q: What about the “Plant response rating, Pigweed” value [2, 10] of the same molecule?
A: The value was 90.

Q: What about the “Plant response rating, Pigweed” value [2, 11] of the same molecule?
A: Its value is 90.

Q: What about the “Pigweed plant response rating” value [2, 12] of the same molecule?
A: The value was 100.

Q: What about the “Plant response rating, Pigweed” value [2, 13] of the same molecule?
A: The value was 100.

Q: And the “Plant response rating, Ragweed” value [3, 10]?
A: Its value is 90.

Q: And the “Plant response rating, Ragweed” value [3, 11]?
A: Its value is 100.

Q: And the “Ragweed plant response rating” value [3, 12]?
A: The value was 100.

Q: What about the “Plant response rating, Ragweed” value [3, 13] of the same molecule?
A: The value was 100.

Q: What about the “Plant response rating, Wheat” value ([4]; 125 g ai/ha, 0 to 100 scale where 0 is no effect and 100 is complete control) of the same molecule?
A: The value was 0.

Q: And the “Plant response rating, Wheat” value ([4]; 500 g ai/ha, visual rating after approx. 10 d, 0 to 100 scale (0 no effect, 100 complete control))?
A: The value was 20.

Q: And the “Plant response rating, Blackgrass” value [5, 14]?
A: The value was 15.

Q: What about the “Plant response rating, Blackgrass” value [5, 15] of the same molecule?
A: The value was 50.

Q: And the “Plant response rating, Blackgrass” value [5, 16]?
A: The value was 60.

Q: And the “Plant response rating, Blackgrass” value [5, 17]?
A: Its value is 20.

Q: And the “Plant response rating, Blackgrass” value [5, 18]?
A: The value was 50.

Q: What about the “Plant response rating, Blackgrass” value [5, 19] of the same molecule?
A: Its value is 55.

Q: And the “Blackgrass plant response rating” value [5, 20]?
A: The value was 90.

Q: What about the “Blackgrass plant response rating” value [5, 21] of the same molecule?
A: Its value is 40.

Q: What about the “Plant response rating, Corn” value (corn (Zea mays); [14]) of the same molecule?
A: The value was 10.

Q: What about the “Plant response rating, Corn” value (corn (Zea mays); [15]) of the same molecule?
A: The value was 30.

Q: What about the “Plant response rating, Corn” value (corn (Zea mays); [16]) of the same molecule?
A: The value was 30.

Q: What about the “Plant response rating, Corn” value (corn (Zea mays); [17]) of the same molecule?
A: The value was 0.

Q: What about the “Plant response rating, Corn” value (corn (Zea mays); [18]) of the same molecule?
A: Its value is 0.

Q: What about the “Plant response rating, Corn” value (corn (Zea mays); [19]) of the same molecule?
A: Its value is 5.

Q: What about the “Corn plant response rating” value (corn (Zea mays); [20]) of the same molecule?
A: Its value is 25.

Q: And the “Corn plant response rating” value (corn (Zea mays); [21])?
A: The value was 15.

Q: What about the “Plant response rating, Morningglory” value [6, 14] of the same molecule?
A: Its value is 100.

Q: What about the “Plant response rating, Morningglory” value [6, 15] of the same molecule?
A: The value was 100.

Q: What about the “Plant response rating, Morningglory” value [6, 16] of the same molecule?
A: Its value is 100.

Q: And the “Plant response rating, Morningglory” value [6, 17]?
A: The value was 85.

Q: And the “Plant response rating, Morningglory” value [6, 18]?
A: The value was 90.

Q: What about the “Plant response rating, Morningglory” value [6, 19] of the same molecule?
A: The value was 100.

Q: What about the “Morningglory plant response rating” value [6, 20] of the same molecule?
A: The value was 95.

Q: And the “Plant response rating, Pigweed” value [7, 14]?
A: The value was 85.

Q: And the “Plant response rating, Pigweed” value [7, 15]?
A: The value was 100.

Q: And the “Plant response rating, Pigweed” value [7, 16]?
A: Its value is 98.

Q: And the “Plant response rating, Pigweed” value [7, 17]?
A: The value was 98.

Q: What about the “Plant response rating, Pigweed” value [7, 18] of the same molecule?
A: Its value is 100.

Q: What about the “Plant response rating, Pigweed” value [7, 19] of the same molecule?
A: The value was 100.

Q: And the “Pigweed plant response rating” value [7, 20]?
A: The value was 100.

Q: What about the “Plant response rating, Ryegrass, Italian” value [8, 14] of the same molecule?
A: Its value is 85.

Q: And the “Plant response rating, Ryegrass, Italian” value [8, 15]?
A: Its value is 90.

Q: What about the “Plant response rating, Ryegrass, Italian” value [8, 16] of the same molecule?
A: The value was 80.

Q: What about the “Plant response rating, Ryegrass, Italian” value [8, 17] of the same molecule?
A: The value was 40.

Q: And the “Plant response rating, Ryegrass, Italian” value [8, 18]?
A: Its value is 90.

Q: What about the “Plant response rating, Ryegrass, Italian” value [8, 19] of the same molecule?
A: The value was 90.

Q: And the “Ryegrass, Italian plant response rating” value [8, 20]?
A: The value was 95.

Q: What about the “Plant response rating, Velvetleaf” value [9, 14] of the same molecule?
A: Its value is 75.

Q: And the “Plant response rating, Velvetleaf” value [9, 15]?
A: The value was 90.

Q: And the “Plant response rating, Velvetleaf” value [9, 16]?
A: The value was 100.

Q: And the “Plant response rating, Velvetleaf” value [9, 17]?
A: The value was 60.

Q: And the “Plant response rating, Velvetleaf” value [9, 18]?
A: The value was 85.

Q: And the “Plant response rating, Velvetleaf” value [9, 19]?
A: The value was 90.

Q: And the “Velvetleaf plant response rating” value [9, 20]?
A: The value was 95.
